Data: patent US8119628B2, “Pyrrolidine fused indolobenzadiazepine HCV NS5B inhibitors” (Bristol-Myers Squibb Company, priority 2008, dated 2012)

Assays:
[1] = tested on: HCV replicon cells; experiment: HCV FRET assay in HCV replicon cells; format: cell-based; conditions: Hepatitis C virus
Excerpt: FRET Assay Preparation. To perform the HCV FRET screening assay, 96-well cell culture plates were used. The FRET peptide (Anaspec, Inc.) (Taliani et al., Anal. Biochem. 1996, 240, 60-67) contains a fluorescence donor, EDANS, near one end of the peptide and an acceptor, DABCYL, near the other end. The fluorescence of the peptide is quenched by […] resonance energy transfer (RET) between the donor and the acceptor, but as the NS3 protease cleaves the peptide the products are released from RET quenching and the fluorescence of the donor becomes apparent. The assay reagent was made as follows: 5× cell Luciferase cell culture lysis reagent from Promega (#E153A) diluted to 1× with dH2O, NaCl added to 150 mM final, the FRET peptide diluted to 20 uM final from a 2 mM stock.
To prepare plates, HCV replicon cells, with or without a Renilla luciferase reporter gene, were trypsinized and placed into each well of a 96-well plate with titrated test compounds added in columns 3 through 12; columns 1 and 2 contained a control compound (HCV protease inhibitor), and the bottom row contained cells without compound. The plates were then placed in a CO2 incubator at 37° C.
Assays. Subsequent to addition of the test compounds described above (FRET Assay Preparation), at various times the plate was removed and Alamar blue solution (Trek Diagnostics, #00-100) was added per well as a measure of cellular toxicity. After reading in a Cytoflour 4000 instrument (PE Biosystems), plates were rinsed with PBS and then used for FRET assay by the addition of 30 ul of the FRET peptide assay reagent described above (FRET Assay Preparation) per well. The plate was then placed into the Cytoflour 4000 instrument which had been set to 340 excite/490 emission, automatic mode for 20 cycles and the plate read in a kinetic mode. Typically, the signal to noise using an endpoint analysis after the reads was at least three-fold. Alternatively, after Alamar blue reading, plates were rinsed with PBS, 50 ul of DMEM (high glucose) without phenol red was added and plates were then used for luciferase assay using the Promega Dual-Glo Luciferase Assay System.
Compound analysis was determined by quantification of the relative HCV replicon inhibition and the relative cytotoxicity values. To calculate cytoxicity values, the average Alamar Blue fluorescence signals from the control wells were set as 100% non-toxic. The individual signals in each of the compound test wells were then divided by the average control signal and multiplied by 100% to determine […]. To calculate the HCV replicon inhibition values, an average background value was obtained from the two wells containing the highest amount of HCV protease inhibitor at the end of the assay period. These numbers were similar to those obtained from naïve Huh-7 cells.
The background numbers were then subtracted from the average signal obtained from the control wells and this number was used as 100% activity. The individual signals in each of the compound test wells were then divided by the averaged control values after background subtraction and multiplied by 100% to determine percent activity. EC50 values for a protease inhibitor titration were calculated as the concentration which caused a 50% reduction in FRET or luciferase activity. The two numbers generated for the compound plate, percent cytoxicity and percent activity were used to determine compounds of interest for further analysis.

[2] = biological target: T1, HCV NS5B (Hepatitis C virus genotype 1b, UniProt Q9WMX2); experiment: Modified HCV NS5B RdRp enzyme assay (preincubation protocol); format: biochemical; conditions: HCV NS5B RdRp genotype 1b
T1 construct: The protein was expressed with an 18 amino acid C-terminal truncation to enhance the solubility; made in house; host or cells: E. coli BL21(DE3)
Description: HCV NS5B RdRp cloning, expression, and purification. The cDNA encoding the NS5B protein of HCV, genotype 1b, was cloned into the pET21a expression vector. The protein was expressed with an 18 amino acid C-terminal truncation to enhance the solubility. The E. coli competent cell line BL21(DE3) was used for expression of the protein. Cultures were grown at 37° C. for ˜4 hours until the cultures reached an optical density of 2.0 at 600 nm. The cultures were cooled to 20° C. and induced with 1 mM IPTG. Fresh ampicillin was added to a final concentration of 50 μg/ml and the cells were grown overnight at 20° C.
Cell pellets (3 L) were lysed for purification to yield 15-24 […] of purified NS5B. The lysis buffer consisted of 20 mM Tris-HCl, pH 7.4, 500 mM NaCl, 0.5% triton X-100, 1 mM DTT, 1 mM EDTA, 20% glycerol, 0.5 mg/ml lysozyme, 10 mM MgCl2, 15 ug/ml deoxyribonuclease I, and Complete TM protease inhibitor tablets (Roche). After addition of the lysis buffer, frozen cell pellets were resuspended using a tissue homogenizer. To reduce the viscosity of the sample, aliquots of the lysate were sonicated on ice using a microtip attached to a Branson sonicator. The sonicated lysate was centrifuged at 100,000×g for 1 hr at 4° C. and filtered through a 0.2 μm filter unit (Corning).
The protein was purified using three sequential chromatography steps: Heparin sepharose CL-6B, polyU sepharose 4B, and Hitrap SP sepharose (Pharmacia). The chromatography buffers were identical to the lysis buffer but contained no lysozyme, deoxyribonuclease I, MgCl2 or protease inhibitor and the NaCl concentration of the buffer was adjusted according to the requirements for charging the protein onto the column. Each column was eluted with a NaCl gradient which varied in length from 5-50 column volumes depending on the column type. After the final chromatography step, the resulting purity of the enzyme is >90% based on SDS-PAGE analysis. The enzyme was aliquoted and stored at −80° C.
Standard HCV NS5B RdRp enzyme assay. HCV RdRp genotype 1b assays were run in a final volume of 60 μl in 96 well plates (Costar 3912). The assay buffer is composed of 20 mM Hepes, pH 7.5, 2.5 mM KCl, 2.5 mM MgCl2, 1 mM DTT, 1.6 U RNAse inhibitor (Promega N2515), 0.1 mg/ml BSA (Promega R3961), and 2% glycerol. All compounds were serially diluted (3-fold) in DMSO and diluted further in water such that the final concentration of DMSO in the assay was 2%. HCV RdRp genotype 1b enzyme was used at a final concentration of 28 nM. A polyA template was used at 6 nM, and a biotinylated oligo-dT12 primer was used at 180 nM final concentration. Template was obtained commercially (Amersham 27-4110). Biotinylated primer was prepared by Sigma Genosys. 3H-UTP was used at 0.6 μCi (0.29 μM total UTP). Reactions were initiated by the addition of enzyme, incubated at 30° C. for 60 min, and stopped by adding 25 μl of 50 mM EDTA containing SPA beads (4 μg/μl, Amersham RPNQ 0007). Plates were read on a Packard Top Count NXT after >1 hr incubation at room temperature.
Modified HCV NS5B RdRp enzyme assay. A modified enzyme assay was performed essentially as described for the standard enzyme assay except for the following: The biotinylated oligo dTl2 primer was precaptured on streptavidin-coated SPA beads by mixing primer and beads in assay buffer and incubating at room temperature for one hour. Unbound primer was removed after centrifugation. The primer-bound beads were resuspended in 20 mM Hepes buffer, pH 7.5 and used in the assay at final concentrations of 20 nM primer and […] beads. Order of addition in the assay: enzyme (14 nM) was added to diluted compound followed by the addition of a mixture of template (0.2 nM), 3H-UTP (0.6 μCi, 0.29 μM), and primer-bound beads, to initiate the reaction; concentrations given are final. Reactions were allowed to proceed for 4 hours at 30° C.
IC50 values for compounds were determined using seven different. […]

T1 sequence (Q9WMX2 2420-2992): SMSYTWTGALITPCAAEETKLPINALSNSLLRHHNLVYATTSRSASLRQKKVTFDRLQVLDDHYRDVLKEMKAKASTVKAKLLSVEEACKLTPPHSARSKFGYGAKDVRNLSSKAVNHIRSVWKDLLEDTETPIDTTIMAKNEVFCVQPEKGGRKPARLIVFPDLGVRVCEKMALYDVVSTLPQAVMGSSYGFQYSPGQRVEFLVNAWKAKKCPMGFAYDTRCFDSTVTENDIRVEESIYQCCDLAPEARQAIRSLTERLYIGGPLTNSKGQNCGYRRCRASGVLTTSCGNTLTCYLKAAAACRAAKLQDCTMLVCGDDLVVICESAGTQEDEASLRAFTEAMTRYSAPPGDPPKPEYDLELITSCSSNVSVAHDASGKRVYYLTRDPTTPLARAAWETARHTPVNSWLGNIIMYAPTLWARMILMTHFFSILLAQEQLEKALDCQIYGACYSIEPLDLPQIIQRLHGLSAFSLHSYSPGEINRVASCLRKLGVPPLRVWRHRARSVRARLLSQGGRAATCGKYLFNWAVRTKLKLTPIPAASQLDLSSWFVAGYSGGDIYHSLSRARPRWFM

| SMILES | EC50 ([1]; reported as class) | IC50 ([2]; reported as class) | EC50 [1] | IC50 [2] |
| --- | --- | --- | --- | --- |
| COc1ccc2c(c1)C1CN(Cc3cncn3C)CC1(C(=O)N(C)C)Cn1c-2c(C2CCCCC2)c2ccc(C(=O)NS(=O)(=O)N(C)C)cc21 (racemic) [Example 18, rac-(3aR,14bR)-10-Cyclohexyl-N^7-(dimethylsulfamoyl)-13-methoxy-N^3a,N^3a-dimethyl-2-((1-methyl-1H-imidazol-5-yl)methyl)-1,2,3,14b-tetrahydroindolo[2,1-a]pyrrolo[3,4-d][2]benzazepine-3a,7(4H)-dicarboxamide] | 20 to 500 nM | 20 to 500 nM | – | – |
| COc1ccc2c(c1)C1CN(C(=O)N(C)C)CC1(C(=O)N(C)C)Cn1c-2c(C2CCCCC2)c2ccc(C(=O)NS(=O)(=O)N(C)C)cc21 (racemic) [Example 8, rac-(3aR,14bR)-10-cyclohexyl-N^7-(dimethylsulfamoyl)-13-methoxy-N^2,N^2,N^3a,N^3a-tetramethyl-1,14b-dihydroindolo[2,1-a]pyrrolo[3,4-d][2]benzazepine-2,3a,7(3H,4H)-tricarboxamide] | 20 to 500 nM | 20 to 500 nM | – | – |
| COc1ccc2c(c1)C1CNCC1(C(=O)N(C)C)Cn1c-2c(C2CCCCC2)c2ccc(C(=O)NS(=O)(=O)N(C)C)cc21 (racemic) [Example 7, rac-(3aR,14bR)-10-cyclohexyl-N^7-(dimethylsulfamoyl)-13-methoxy-N^3a,N^3a-dimethyl-1,2,3,14b-tetrahydroindolo[2,1-a]pyrrolo[3,4-d][2]benzazepine-3a,7(4H)-dicarboxamide] | – | – | 22 nM | 41 nM |
| COc1ccc2c(c1)C1CN(C(C)CN(C)C)CC1(C(=O)N(C)C)Cn1c-2c(C2CCCCC2)c2ccc(C(=O)NS(=O)(=O)N(C)C)cc21 (racemic) [Example 17a, rac-(3aR,14bR)-10-cyclohexyl-2-(2-(dimethylamino)-1R-methylethyl)-N^7-(dimethylsulfamoyl)-13-methoxy-N^3a,N^3a-dimethyl-1,2,3,14b-tetrahydroindolo[2,1-a]pyrrolo[3,4-d][2]benzazepine-3a,7(4H)-dicarboxamide] | 20 to 500 nM | 20 to 500 nM | – | – |
| COc1ccc2c(c1)C1CN(Cc3ccccc3)CC1(C(=O)N1C[C@@H](C)O[C@@H](C)C1)Cn1c-2c(C2CCCCC2)c2ccc(C(=O)NS(=O)(=O)N(C)C)cc21 (mixture of isomers) [Example 1, rac-(3aR,14bR)-2-benzyl-10-cyclohexyl-3a-(((2S,6R)-2,6-dimethyl-4-morpholinyl)carbonyl)-N-(dimethylsulfamoyl)-13-methoxy-1,2,3,3a,4,14b-hexahydroindolo[2,1-a]pyrrolo[3,4-d][2]benzazepine-7-carboxamide] | – | – | 210 nM | 430 nM |
| COc1ccc2c(c1)C1CN(C(C)C)CC1(C(=O)N1C[C@@H](C)O[C@@H](C)C1)Cn1c-2c(C2CCCCC2)c2ccc(C(=O)NS(=O)(=O)N(C)C)cc21 (mixture of isomers) [Example 5, rac-(3aR,14bR)-10-Cyclohexyl-3a-(((2S,6R)-2,6-dimethyl-4-morpholinyl)carbonyl)-N-(dimethylsulfamoyl)-2-isopropyl-13-methoxy-1,2,3,3a,4,14b-hexahydroindolo[2,1-a]pyrrolo[3,4-d][2]benzazepine-7-carboxamide] | – | – | 120 nM | 200 nM |
| COc1ccc2c(c1)C1CN(C(=O)CN(C)C)CC1(C(=O)N1C[C@@H](C)O[C@@H](C)C1)Cn1c-2c(C2CCCCC2)c2ccc(C(=O)NS(=O)(=O)N(C)C)cc21 (mixture of isomers) [Example 13, rac-(3aR,14bR)-10-Cyclohexyl-2-(N,N-dimethylglycyl)-3a-(((2S,6R)-2,6-dimethyl-4-morpholinyl)carbonyl)-N-(dimethylsulfamoyl)-13-methoxy-1,2,3,3a,4,14b-hexahydroindolo[2,1-a]pyrrolo[3,4-d][2]benzazepine-7-carboxamide] | 20 to 500 nM | 20 to 500 nM | – | – |
| COc1ccc2c(c1)C1CNCC1(C(=O)N1C[C@@H](C)O[C@@H](C)C1)Cn1c-2c(C2CCCCC2)c2ccc(C(=O)NS(=O)(=O)N(C)C)cc21 (mixture of isomers) [Example 2, rac-(3aR,14bR)-10-cyclohexyl-3a-(((2S,6R)-2,6-dimethyl-4-morpholinyl)carbonyl)-N-(dimethylsulfamoyl)-13-methoxy-1,2,3,3a,4,14b-hexahydroindolo[2,1-a]pyrrolo[3,4-d][2]benzazepine-7-carboxamide] | 20 to 500 nM | 20 to 500 nM | – | – |
| COc1ccc2c(c1)C1CN(Cc3ccccc3)CC1(C(=O)N(C)C)Cn1c-2c(C2CCCCC2)c2ccc(C(=O)NS(=O)(=O)N(C)C)cc21 (racemic) [Example 6, rac-(3aR,14bR)-2-benzyl-10-cyclohexyl-N^7-(dimethylsulfamoyl)-13-methoxy-N^3a,N^3a-dimethyl-1,2,3,14b-tetrahydroindolo[2,1-a]pyrrolo[3,4-d][2]benzazepine-3a,7(4H)-dicarboxamide] | 20 to 500 nM | 20 to 500 nM | – | – |
| COc1ccc2c(c1)C1CN(C(=O)c3nccn3C)CC1(C(=O)N(C)C)Cn1c-2c(C2CCCCC2)c2ccc(C(=O)NS(=O)(=O)N(C)C)cc21 (racemic) [Example 16, rac-(3aR,14bR)-10-Cyclohexyl-N^7-(dimethylsulfamoyl)-13-methoxy-N^3a,N^3a-dimethyl-2-((1-methyl-1H-imidazol-2-yl)carbonyl)-1,2,3,14b-tetrahydroindolo[2,1-a]pyrrolo[3,4-d][2]benzazepine-3a,7(4H)-dicarboxamide] | 20 to 500 nM | 20 to 500 nM | – | – |
